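Dose response: 5 concentrations. Exposure: 48 h. Format: 96-well plates. Endpoint: linear interpolation; highest concentration if not reached. GI50 is the concentration that inhibits growth by half. Definition used: TGI = concentration required for complete inhibition of growth.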
Assays:
Assay in all cases: DTP human tumour cell line panel, 48 h
786-0 renal = system: 786-0 renal
NCI-H460 lung = system: NCI-H460 lung
OVCAR-5 ovarian = system: OVCAR-5 ovarian
MOLT-4 leukemia = system: MOLT-4 leukemia
UACC-257 melanoma = system: UACC-257 melanoma
SNB-19 CNS = system: SNB-19 CNS
HCT-15 colon = system: HCT-15 colon
A549 NSCLC = system: A549 NSCLC
IGROV1 ovarian = system: IGROV1 ovarian
SR leukemia = system: SR leukemia

Cc1cc(N2CCCCC2)nc(NC2CCCC(Nc3ccnc4cc(Cl)ccc34)C2)n1 (stereo not given)
GI50 (786-0 renal): 1.27 µM
TGI (786-0 renal): 2.59 µM
GI50 (NCI-H460 lung): 1.39 µM
TGI (NCI-H460 lung): 2.86 µM
GI50 (OVCAR-5 ovarian): 1.88 µM
TGI (OVCAR-5 ovarian): 4.84 µM
GI50 (MOLT-4 leukemia): 1.21 µM
TGI (MOLT-4 leukemia): 3.7 µM
GI50 (UACC-257 melanoma): 1.92 µM
TGI (UACC-257 melanoma): 3.55 µM
GI50 (SNB-19 CNS): 1.58 µM
TGI (SNB-19 CNS): 3.44 µM
GI50 (HCT-15 colon): 0.825 µM
TGI (HCT-15 colon): 2.17 µM

NC1CCCCC1N.O=C1C=C/C(=C(/c2ccc(O)c(Br)c2)c2ccccc2S(=O)(=O)[O-])C=C1Br.O=C1C=C/C(=C(/c2ccc(O)c(Br)c2)c2ccccc2S(=O)(=O)[O-])C=C1Br.[Pt+4]
GI50 (786-0 renal): 2.42 µM
TGI (786-0 renal): > 100 µM
GI50 (NCI-H460 lung): 1.54 µM
TGI (NCI-H460 lung): > 100 µM
GI50 (A549 NSCLC): 2.42 µM
TGI (A549 NSCLC): > 100 µM
GI50 (OVCAR-5 ovarian): 2 µM
TGI (OVCAR-5 ovarian): 87.7 µM
GI50 (IGROV1 ovarian): 4.17 µM
TGI (IGROV1 ovarian): > 100 µM
GI50 (UACC-257 melanoma): 5.38 µM
TGI (UACC-257 melanoma): > 100 µM
GI50 (SNB-19 CNS): 7.14 µM
TGI (SNB-19 CNS): > 100 µM
GI50 (HCT-15 colon): 3.85 µM
TGI (HCT-15 colon): > 100 µM

COC(=O)[C@]12CC[C@@H](C)[C@H](C)[C@@H]1C1=CC[C@@H]3[C@@]4(C)C[C@@H](OC(=O)/C=C/c5ccccc5)[C@H](O)[C@@](C)(CO)[C@@H]4[C@H](O)C[C@@]3(C)[C@]1(C)CC2
GI50 (786-0 renal): 1.87 µM
TGI (786-0 renal): 3.82 µM
GI50 (NCI-H460 lung): 2.12 µM
TGI (NCI-H460 lung): 4.7 µM
GI50 (A549 NSCLC): 3.11 µM
TGI (A549 NSCLC): 12 µM
GI50 (OVCAR-5 ovarian): 2.17 µM
TGI (OVCAR-5 ovarian): 6 µM
GI50 (IGROV1 ovarian): 3.61 µM
TGI (IGROV1 ovarian): 14 µM
GI50 (MOLT-4 leukemia): 2.27 µM
TGI (MOLT-4 leukemia): 7.31 µM
GI50 (SNB-19 CNS): 3.51 µM
TGI (SNB-19 CNS): 16.6 µM
GI50 (HCT-15 colon): 1.93 µM
TGI (HCT-15 colon): 4.02 µM

C=CC(=O)N1C[C@@H]2CCOc3c(Cl)c(-c4c(O)cccc4F)c(F)c4ncnc(c34)N2C[C@H]1C
GI50 (786-0 renal): 14.7 µM
TGI (786-0 renal): 29.4 µM
GI50 (NCI-H460 lung): 15.2 µM
TGI (NCI-H460 lung): 32.1 µM
GI50 (A549 NSCLC): 15.3 µM
TGI (A549 NSCLC): 34.7 µM
GI50 (OVCAR-5 ovarian): 16.3 µM
TGI (OVCAR-5 ovarian): 31.1 µM
GI50 (IGROV1 ovarian): 17.4 µM
TGI (IGROV1 ovarian): 46.6 µM
GI50 (MOLT-4 leukemia): 5.79 µM
TGI (MOLT-4 leukemia): > 100 µM
GI50 (UACC-257 melanoma): 13 µM
TGI (UACC-257 melanoma): 30.3 µM
GI50 (SNB-19 CNS): 14.6 µM
TGI (SNB-19 CNS): 28 µM
GI50 (HCT-15 colon): 11.8 µM
TGI (HCT-15 colon): 26.6 µM

COc1cc([N+](=O)[O-])c(OC)cc1-c1nc2sc(C)cn2c1/C(N)=N/C(=N)N
GI50 (786-0 renal): > 100 µM
TGI (786-0 renal): > 100 µM
GI50 (NCI-H460 lung): 43.7 µM
TGI (NCI-H460 lung): > 100 µM
GI50 (A549 NSCLC): 40.7 µM
TGI (A549 NSCLC): > 100 µM
GI50 (OVCAR-5 ovarian): > 100 µM
TGI (OVCAR-5 ovarian): > 100 µM
GI50 (IGROV1 ovarian): 32.9 µM
TGI (IGROV1 ovarian): > 100 µM
GI50 (MOLT-4 leukemia): > 100 µM
TGI (MOLT-4 leukemia): > 100 µM
GI50 (UACC-257 melanoma): 18.4 µM
TGI (UACC-257 melanoma): 67 µM
GI50 (SNB-19 CNS): 39.4 µM
TGI (SNB-19 CNS): > 100 µM
GI50 (HCT-15 colon): > 100 µM
TGI (HCT-15 colon): > 100 µM

N#CCC(=O)N/N=C1/C(=O)N(c2cc(Cl)ccc2Cl)C(=O)C(=O)C1c1nc2ccccc2s1 (stereo not given)
TGI (786-0 renal): > 100 µM
TGI (NCI-H460 lung): > 100 µM
TGI (A549 NSCLC): > 100 µM
TGI (OVCAR-5 ovarian): > 100 µM
TGI (IGROV1 ovarian): > 100 µM
TGI (MOLT-4 leukemia): > 100 µM
TGI (UACC-257 melanoma): > 100 µM
TGI (SNB-19 CNS): > 100 µM
TGI (HCT-15 colon): > 100 µM

Cc1cnc2oc3ccc(O)cc3c2c1-c1ccccc1
GI50 (786-0 renal): 36.3 µM
TGI (786-0 renal): > 100 µM
GI50 (NCI-H460 lung): 19.7 µM
TGI (NCI-H460 lung): > 100 µM
GI50 (A549 NSCLC): > 100 µM
TGI (A549 NSCLC): > 100 µM
GI50 (OVCAR-5 ovarian): > 100 µM
TGI (OVCAR-5 ovarian): > 100 µM
GI50 (IGROV1 ovarian): 47 µM
TGI (IGROV1 ovarian): > 100 µM
GI50 (UACC-257 melanoma): > 100 µM
TGI (UACC-257 melanoma): > 100 µM
GI50 (SNB-19 CNS): 34.3 µM
TGI (SNB-19 CNS): > 100 µM
GI50 (SR leukemia): > 100 µM
TGI (SR leukemia): > 100 µM
GI50 (HCT-15 colon): 27.2 µM
TGI (HCT-15 colon): > 100 µM

O=C(c1ccccc1Cl)n1oc2ccccc2c1=O
TGI (786-0 renal): > 100 µM
TGI (NCI-H460 lung): > 100 µM
TGI (A549 NSCLC): > 100 µM
TGI (OVCAR-5 ovarian): > 100 µM
TGI (IGROV1 ovarian): > 100 µM
TGI (MOLT-4 leukemia): 51.3 µM
TGI (UACC-257 melanoma): > 100 µM
TGI (SNB-19 CNS): > 100 µM
TGI (HCT-15 colon): > 100 µM

CC(C)(C)c1cc(CCCCCCCC2(CCCCCCCc3cc(C(C)(C)C)cc(C(C)(C)C)c3)OC(COCCOCCCCCC#N)C(COCCOCCCCCC#N)O2)cc(C(C)(C)C)c1 (stereo not given)
TGI (786-0 renal): > 100 µM
TGI (NCI-H460 lung): > 100 µM
TGI (A549 NSCLC): > 100 µM
TGI (OVCAR-5 ovarian): > 100 µM
TGI (IGROV1 ovarian): > 100 µM
TGI (UACC-257 melanoma): > 100 µM
TGI (SNB-19 CNS): > 100 µM
TGI (HCT-15 colon): > 100 µM

COc1cc(CNCCN2C(=O)c3ccc4c5c(ccc(c35)C2=O)C(=O)N(CCNCc2cc(OC)c(OC)c(OC)c2)C4=O)cc(OC)c1OC
GI50 (786-0 renal): 0.145 µM
TGI (786-0 renal): 0.391 µM
GI50 (IGROV1 ovarian): 0.296 µM
TGI (IGROV1 ovarian): 1.89 µM
GI50 (SNB-19 CNS): 0.827 µM
TGI (SNB-19 CNS): 1.84 µM
GI50 (SR leukemia): 0.0973 µM
TGI (SR leukemia): 0.311 µM

O=C1C(=C([O-])c2ccccc2)C(=O)c2ccccc21.O=C1C(=C([O-])c2ccccc2)C(=O)c2ccccc21.[Mn+2]
GI50 (786-0 renal): > 100 µM
TGI (786-0 renal): > 100 µM
GI50 (A549 NSCLC): > 100 µM
TGI (A549 NSCLC): > 100 µM
GI50 (OVCAR-5 ovarian): > 100 µM
TGI (OVCAR-5 ovarian): > 100 µM
GI50 (IGROV1 ovarian): > 100 µM
TGI (IGROV1 ovarian): > 100 µM
GI50 (MOLT-4 leukemia): > 100 µM
TGI (MOLT-4 leukemia): > 100 µM
GI50 (UACC-257 melanoma): 22.6 µM
TGI (UACC-257 melanoma): 48.4 µM
GI50 (SNB-19 CNS): 76.7 µM
TGI (SNB-19 CNS): > 100 µM
GI50 (HCT-15 colon): 55.4 µM
TGI (HCT-15 colon): > 100 µM
